{"source": "patent US11547681B2", "about": "“N-acylethanolamide derivatives and uses thereof” (ELIEM THERAPEUTICS, INC., priority 2016, dated 2023)", "key": {"in vitro [1]": {"assay": "in vitro", "conditions": "for Measured concentration of PEA (analyte) / % Remaining of Initial: 1 μM; for % Remaining of Initial / microsomal CLint at 1 μM / half-life at 1 μM: microsomes", "outline": "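Half-life comes from a one-phase exponential decay fitted to percent of parent left relative to time 0. The compound (1 μM) was incubated at 37° C after cofactor addition and sampled up to 60 min, with LC-MS/MS quantitation of both the prodrug and the released PEA.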"}, "in vitro [2]": {"assay": "in vitro", "conditions": "male; for Measured concentration of PEA (analyte) / % Remaining of Initial: 1 μM; for % Remaining of Initial / microsomal CLint at 1 μM / half-life at 1 μM: microsomes", "outline": "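Mixtures lacking cofactor were equilibrated at 37° C for 3 or 5 min, then cofactor was added to begin metabolism of 1 μM test article. Aliquots were removed over 60 min and protein-precipitated. Decay of parent was fitted to a single exponential to give half-life.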"}, "[3]": {"conditions": "both, human, calculated value in parentheses"}, "[4]": {"conditions": "male, Sprague-Dawley, rat, 10 min"}, "[5]": {"conditions": "male, Sprague-Dawley, rat, 20 min"}, "[6]": {"conditions": "male, Sprague-Dawley, rat, calculated value in parentheses"}, "[7]": {"conditions": "Beagle, dog, calculated value in parentheses"}, "[8]": {"conditions": "CD-1, mouse, calculated value in parentheses"}}}
{"smiles": "CCCCCCCCCCCCCCCC(=O)NCCOC(=O)CCC(=O)OC(COC(=O)CCC)COC(=O)CCC", "note": "[Compound I-16]", "values": [{"measurement": "Measured concentration of PEA (analyte)", "setting": "in vitro [1]; both, human, 0 min", "result": 0, "unit": "µM"}, {"measurement": "Measured concentration of PEA (analyte)", "setting": "in vitro [1]; both, human, 10 min", "result": 0.22, "unit": "µM"}, {"measurement": "Measured concentration of PEA (analyte)", "setting": "in vitro [1]; both, human, 20 min", "result": 0.15, "unit": "µM"}, {"measurement": "Measured concentration of PEA (analyte)", "setting": "in vitro [1]; both, human, 30 min", "result": 0.14, "unit": "µM"}, {"measurement": "Measured concentration of PEA (analyte)", "setting": "in vitro [1]; both, human, 60 min", "result": 0.069, "unit": "µM"}, {"measurement": "% Remaining of Initial", "setting": "in vitro [1]; both, human, 0 h", "result": 100, "unit": "%"}, {"measurement": "% Remaining of Initial", "setting": "in vitro [1]; both, human, 10 min", "result": 8.0, "unit": "%"}, {"measurement": "% Remaining of Initial", "setting": "in vitro [1]; both, human, 20 min", "result": 3.5, "unit": "%"}, {"measurement": "% Remaining of Initial", "setting": "in vitro [1]; both, human, 0.5 h", "result": 1.9, "unit": "%"}, {"measurement": "% Remaining of Initial", "setting": "in vitro [1]; both, human, 1 h", "result": "<1.0", "unit": "%"}, {"measurement": "microsomal CLint at 1 μM", "setting": "in vitro [1]; both, human", "result": "> 139", "unit": "µL/min/mg"}, {"measurement": "microsomal CLint at 1 μM", "setting": "in vitro [1]; [3]", "result": 493, "unit": "µL/min/mg"}, {"measurement": "half-life at 1 μM", "setting": "in vitro [1]; both, human", "result": "< 10", "unit": "min"}, {"measurement": "half-life at 1 μM", "setting": "in vitro [1]; [3]", "result": 2.8, "unit": "min"}, {"measurement": "Measured concentration of PEA (analyte)", "setting": "in vitro [1]; male, Sprague-Dawley, rat, 0 min", "result": 0.025, "unit": "µM"}, {"measurement": "Measured concentration of PEA (analyte)", "setting": "in vitro [1]; [4]", "result": 0.033, "unit": "µM"}, {"measurement": "Measured concentration of PEA (analyte)", "setting": "in vitro [1]; [5]", "result": 0.015, "unit": "µM"}, {"measurement": "Measured concentration of PEA (analyte)", "setting": "in vitro [1]; male, Sprague-Dawley, rat, 30 min", "result": 0, "unit": "µM"}, {"measurement": "Measured concentration of PEA (analyte)", "setting": "in vitro [1]; male, Sprague-Dawley, rat, 60 min", "result": 0, "unit": "µM"}, {"measurement": "% Remaining of Initial", "setting": "in vitro [1]; male, Sprague-Dawley, rat, 0 h", "result": 100, "unit": "%"}, {"measurement": "% Remaining of Initial", "setting": "in vitro [1]; [4]", "result": 9.7, "unit": "%"}, {"measurement": "% Remaining of Initial", "setting": "in vitro [1]; [5]", "result": 4.2, "unit": "%"}, {"measurement": "% Remaining of Initial", "setting": "in vitro [1]; male, Sprague-Dawley, rat, 0.5 h", "result": 3.1, "unit": "%"}, {"measurement": "% Remaining of Initial", "setting": "in vitro [1]; male, Sprague-Dawley, rat, 1 h", "result": "<1.0", "unit": "%"}, {"measurement": "microsomal CLint at 1 μM", "setting": "in vitro [1]; male, Sprague-Dawley, rat", "result": "> 139", "unit": "µL/min/mg"}, {"measurement": "microsomal CLint at 1 μM", "setting": "in vitro [1]; [6]", "result": 452, "unit": "µL/min/mg"}, {"measurement": "half-life at 1 μM", "setting": "in vitro [1]; male, Sprague-Dawley, rat", "result": "< 10", "unit": "min"}, {"measurement": "half-life at 1 μM", "setting": "in vitro [1]; [6]", "result": 3.1, "unit": "min"}, {"measurement": "Measured concentration of PEA (analyte)", "setting": "in vitro [2]; Beagle, dog, 0 min", "result": 0.053, "unit": "µM"}, {"measurement": "Measured concentration of PEA (analyte)", "setting": "in vitro [2]; Beagle, dog, 10 min", "result": 0.59, "unit": "µM"}, {"measurement": "Measured concentration of PEA (analyte)", "setting": "in vitro [2]; Beagle, dog, 20 min", "result": 0.48, "unit": "µM"}, {"measurement": "Measured concentration of PEA (analyte)", "setting": "in vitro [2]; Beagle, dog, 30 min", "result": 0.43, "unit": "µM"}, {"measurement": "Measured concentration of PEA (analyte)", "setting": "in vitro [2]; Beagle, dog, 60 min", "result": 0.20, "unit": "µM"}, {"measurement": "% Remaining of Initial", "setting": "in vitro [2]; Beagle, dog, 0 h", "result": 100, "unit": "%"}, {"measurement": "% Remaining of Initial", "setting": "in vitro [2]; Beagle, dog, 10 min", "result": 4.4, "unit": "%"}, {"measurement": "% Remaining of Initial", "setting": "in vitro [2]; Beagle, dog, 20 min", "result": 1.6, "unit": "%"}, {"measurement": "% Remaining of Initial", "setting": "in vitro [2]; Beagle, dog, 0.5 h", "result": 1.4, "unit": "%"}, {"measurement": "% Remaining of Initial", "setting": "in vitro [2]; Beagle, dog, 1 h", "result": 1.5, "unit": "%"}, {"measurement": "microsomal CLint at 1 μM", "setting": "in vitro [2]; Beagle, dog", "result": "> 139", "unit": "µL/min/mg"}, {"measurement": "microsomal CLint at 1 μM", "setting": "in vitro [2]; [7]", "result": 618, "unit": "µL/min/mg"}, {"measurement": "half-life at 1 μM", "setting": "in vitro [2]; Beagle, dog", "result": "< 10", "unit": "min"}, {"measurement": "half-life at 1 μM", "setting": "in vitro [2]; [7]", "result": 2.2, "unit": "min"}, {"measurement": "Measured concentration of PEA (analyte)", "setting": "in vitro [2]; CD-1, mouse, 0 min", "result": 0.29, "unit": "µM"}, {"measurement": "Measured concentration of PEA (analyte)", "setting": "in vitro [2]; CD-1, mouse, 10 min", "result": 0.27, "unit": "µM"}, {"measurement": "Measured concentration of PEA (analyte)", "setting": "in vitro [2]; CD-1, mouse, 20 min", "result": 0.12, "unit": "µM"}, {"measurement": "Measured concentration of PEA (analyte)", "setting": "in vitro [2]; CD-1, mouse, 30 min", "result": 0.089, "unit": "µM"}, {"measurement": "Measured concentration of PEA (analyte)", "setting": "in vitro [2]; CD-1, mouse, 60 min", "result": 0.0093, "unit": "µM"}, {"measurement": "% Remaining of Initial", "setting": "in vitro [2]; CD-1, mouse, 0 h", "result": 100, "unit": "%"}, {"measurement": "% Remaining of Initial", "setting": "in vitro [2]; CD-1, mouse, 10 min", "result": 7.6, "unit": "%"}, {"measurement": "% Remaining of Initial", "setting": "in vitro [2]; CD-1, mouse, 20 min", "result": 3.0, "unit": "%"}, {"measurement": "% Remaining of Initial", "setting": "in vitro [2]; CD-1, mouse, 0.5 h", "result": 2.1, "unit": "%"}, {"measurement": "% Remaining of Initial", "setting": "in vitro [2]; CD-1, mouse, 1 h", "result": 1.8, "unit": "%"}, {"measurement": "microsomal CLint at 1 μM", "setting": "in vitro [2]; CD-1, mouse", "result": "> 139", "unit": "µL/min/mg"}, {"measurement": "microsomal CLint at 1 μM", "setting": "in vitro [2]; [8]", "result": 503, "unit": "µL/min/mg"}, {"measurement": "half-life at 1 μM", "setting": "in vitro [2]; CD-1, mouse", "result": "< 10", "unit": "min"}, {"measurement": "half-life at 1 μM", "setting": "in vitro [2]; [8]", "result": 2.8, "unit": "min"}]}
